Reference: ChEMBL document CHEMBL6078713, “Synthesis and mechanistic studies of 4-aminoquinoline-Isatin molecular hybrids and Schiff's bases as promising antimicrobial agents” (Eur J Med Chem, 2025)
In brackets after ≈: the same amount, converted by molar mass. Activity calls are given as the source filed them. No cut-off for these calls is given here.

What was measured:
Salmonella typhi [1] = assay: Antibacterial activity against Salmonella typhi assessed as diameter of zone of inhibition at 2 times MIC incubated overnight by disk diffusion method; format: functional, Salmonella enterica subsp. enterica serovar Typhi
Staphylococcus aureus [2] = assay: Antibacterial activity against Staphylococcus aureus MTCC 902 assessed as diameter of zone of inhibition at 2 times MIC incubated overnight by disk diffusion method; format: functional
Staphylococcus aureus [3] = assay: Bacteriostatic activity against Staphylococcus aureus MTCC 902 assessed as reduction in bacterial growth at 2 times MIC measured upto 24 hrs by absorbance based assay; format: functional, organism-based
Enterococcus faecalis [4] = assay: Antibacterial activity against Enterococcus faecalis MTCC 439 assessed as inhibition of bacterial growth incubated overnight by spectrophotometry relative to control; format: functional
Bacillus subtilis [5] = assay: Antibacterial activity against Bacillus subtilis MTCC 736 assessed as inhibition of bacterial growth incubated overnight by spectrophotometry relative to control; format: functional
Escherichia coli [6] = assay: Antibacterial activity against Escherichia coli MTCC 443 assessed as inhibition of bacterial growth incubated overnight by serial dilution based spectrophotometer; format: functional
Salmonella typhi [7] = assay: Antibacterial activity against Salmonella typhi assessed as diameter of zone of inhibition at MIC incubated overnight by disk diffusion method; format: functional, Salmonella enterica subsp. enterica serovar Typhi
Staphylococcus aureus [8] = assay: Bactericidal activity against Staphylococcus aureus MTCC 902 assessed as inhibition of bacterial growth incubated overnight; format: functional
Escherichia coli [9] = assay: Synergistic antibacterial activity against Escherichia coli MTCC 443 assessed as fractional inhibitory concentration index incubated overnight in presence of ciprofloxacin by microdilution checkerboard assay; format: functional
Pseudomonas aeruginosa [10] = assay: Synergistic antibacterial activity against Pseudomonas aeruginosa MTCC 2453 assessed as fractional inhibitory concentration index incubated overnight in presence of ciprofloxacin by microdilution checkerboard assay; format: functional
Pseudomonas aeruginosa [11] = assay: Ratio of MBC for antibacterial activity against Pseudomonas aeruginosa MTCC 2453 to MIC for bactericidal activity against Pseudomonas aeruginosa MTCC 2453; format: functional
Pseudomonas aeruginosa [12] = assay: Bactericidal activity against Pseudomonas aeruginosa MTCC 2453 assessed as inhibition of bacterial growth incubated overnight; format: functional
Enterococcus faecalis [13] = assay: Bactericidal activity against Enterococcus faecalis MTCC 439 assessed as inhibition of bacterial growth incubated overnight; format: functional
Enterococcus faecalis [14] = assay: Antibacterial activity against Enterococcus faecalis MTCC 439 assessed as inhibition of bacterial growth incubated overnight by serial dilution based spectrophotometer; format: functional
Enterococcus faecalis [15] = assay: Antibacterial activity against Enterococcus faecalis MTCC 439 assessed as diameter of zone of inhibition at 2 times MIC incubated overnight by disk diffusion method; format: functional
Salmonella typhi [16] = assay: Antibacterial activity against Salmonella typhi assessed as inhibition of bacterial growth incubated overnight by serial dilution based spectrophotometer; format: functional, Salmonella enterica subsp. enterica serovar Typhi; conditions: Salmonella enterica
Staphylococcus aureus [17] = assay: Synergistic antibacterial activity against Staphylococcus aureus MTCC 902 assessed as inhibition of bacterial growth incubated overnight in presence of ciprofloxacin by serial dilution based spectrophotometer; format: functional
Enterococcus faecalis [18] = assay: Antibacterial activity against Enterococcus faecalis MTCC 439 assessed as diameter of zone of inhibition at 500 ug/ml by agar disk diffusion method; format: functional; conditions: read-out: DIZ
Enterococcus faecalis [19] = assay: Antibacterial activity against Enterococcus faecalis MTCC 439 assessed as diameter of zone of inhibition at 0.5 times MIC incubated overnight by disk diffusion method; format: functional
Pseudomonas aeruginosa [20] = assay: Synergistic antibacterial activity against Pseudomonas aeruginosa MTCC 2453 assessed as inhibition of bacterial growth incubated overnight in presence of ciprofloxacin by serial dilution based spectrophotometer; format: functional
Staphylococcus aureus [21] = assay: Antibacterial activity against Staphylococcus aureus MTCC 902 assessed as inhibition of bacterial growth incubated overnight by spectrophotometry relative to control; format: functional
Pseudomonas aeruginosa [22] = assay: Antibacterial activity against Pseudomonas aeruginosa MTCC 2453 assessed as inhibition of bacterial growth incubated overnight by spectrophotometry relative to control; format: functional
Pseudomonas aeruginosa [23] = assay: Antibacterial activity against Pseudomonas aeruginosa MTCC 2453 assessed as diameter of zone of inhibition at 500 ug/ml by agar disk diffusion method; format: functional; conditions: read-out: DIZ
Pseudomonas aeruginosa [24] = assay: Antibacterial activity against Pseudomonas aeruginosa MTCC 2453 assessed as diameter of zone of inhibition at MIC incubated overnight by disk diffusion method; format: functional
Staphylococcus aureus [25] = assay: Antibacterial activity against Staphylococcus aureus MTCC 902 assessed as diameter of zone of inhibition at MIC incubated overnight by disk diffusion method; format: functional
Bacillus subtilis [26] = assay: Antibacterial activity against Bacillus subtilis MTCC 736 assessed as diameter of zone of inhibition at MIC incubated overnight by disk diffusion method; format: functional
Escherichia coli [27] = assay: Bactericidal activity against Escherichia coli MTCC 443 assessed as inhibition of bacterial growth incubated overnight; format: functional
Enterococcus faecalis [28] = assay: Ratio of MBC for antibacterial activity against Enterococcus faecalis MTCC 439 to MIC for bactericidal activity against Enterococcus faecalis MTCC 439; format: functional
Enterococcus faecalis [29] = assay: Antibacterial activity against Enterococcus faecalis MTCC 439 assessed as diameter of zone of inhibition at MIC incubated overnight by disk diffusion method; format: functional
Escherichia coli [30] = assay: Antibacterial activity against Escherichia coli MTCC 443 assessed as diameter of zone of inhibition at 0.5 times MIC incubated overnight by disk diffusion method; format: functional
Staphylococcus aureus [31] = assay: Synergistic antibacterial activity against Staphylococcus aureus MTCC 902 assessed as fractional inhibitory concentration index incubated overnight in presence of ciprofloxacin by microdilution checkerboard assay; format: functional
Escherichia coli [32] = assay: Antibacterial activity against Escherichia coli MTCC 443 assessed as diameter of zone of inhibition at 500 ug/ml by agar disk diffusion method; format: functional; conditions: read-out: DIZ
Pseudomonas aeruginosa [33] = assay: Antibacterial activity against Pseudomonas aeruginosa MTCC 2453 assessed as diameter of zone of inhibition at 0.5 times MIC incubated overnight by disk diffusion method; format: functional
Salmonella typhi [34] = assay: Antibacterial activity against Salmonella typhi assessed as diameter of zone of inhibition at 0.5 times MIC incubated overnight by disk diffusion method; format: functional, Salmonella enterica subsp. enterica serovar Typhi
Staphylococcus aureus [35] = assay: Bacteriostatic activity against Staphylococcus aureus MTCC 902 assessed as reduction in bacterial growth at 0.5 to 1 times MIC measured upto 24 hrs by absorbance based assay; format: functional, organism-based
Escherichia coli [36] = assay: Bacteriostatic activity against Escherichia coli MTCC 443 assessed as reduction in bacterial growth at 2 times MIC measured upto 10 hrs by absorbance based assay; format: functional, organism-based
Enterococcus faecalis [37] = assay: Synergistic antibacterial activity against Enterococcus faecalis MTCC 439 assessed as fractional inhibitory concentration index incubated overnight in presence of ciprofloxacin by microdilution checkerboard assay; format: functional
Escherichia coli [38] = assay: Antibacterial activity against Escherichia coli MTCC 443 assessed as diameter of zone of inhibition at 2 times MIC incubated overnight by disk diffusion method; format: functional
Bacillus subtilis [39] = assay: Antibacterial activity against Bacillus subtilis MTCC 736 assessed as inhibition of bacterial growth incubated overnight by serial dilution based spectrophotometer; format: functional
Pseudomonas aeruginosa [40] = assay: Antibacterial activity against Pseudomonas aeruginosa MTCC 2453 assessed as inhibition of bacterial growth incubated overnight by serial dilution based spectrophotometer; format: functional
Staphylococcus aureus [41] = assay: Antibacterial activity against Staphylococcus aureus MTCC 902 assessed as inhibition of bacterial growth incubated overnight by serial dilution based spectrophotometer; format: functional
Bacillus subtilis [42] = assay: Antibacterial activity against Bacillus subtilis MTCC 736 assessed as diameter of zone of inhibition at 2 times MIC incubated overnight by disk diffusion method; format: functional
Escherichia coli [43] = assay: Synergistic antibacterial activity against Escherichia coli MTCC 443 assessed as inhibition of bacterial growth incubated overnight in presence of ciprofloxacin by serial dilution based spectrophotometer; format: functional
Staphylococcus aureus [44] = assay: Bacteriostatic activity against Staphylococcus aureus MTCC 902 assessed as reduction in bacterial growth at 2 times MIC measured upto 10 hrs by absorbance based assay; format: functional, organism-based
Enterococcus faecalis [45] = assay: Synergistic antibacterial activity against Enterococcus faecalis MTCC 439 assessed as inhibition of bacterial growth incubated overnight in presence of ciprofloxacin by serial dilution based spectrophotometer; format: functional
Staphylococcus aureus [46] = assay: Antibacterial activity against Staphylococcus aureus MTCC 902 assessed as diameter of zone of inhibition at 0.5 times MIC incubated overnight by disk diffusion method; format: functional
Pseudomonas aeruginosa [47] = assay: Antibacterial activity against Pseudomonas aeruginosa MTCC 2453 assessed as diameter of zone of inhibition at 2 times MIC incubated overnight by disk diffusion method; format: functional
Staphylococcus aureus [48] = assay: Antibacterial activity against Staphylococcus aureus MTCC 902 assessed as diameter of zone of inhibition at 500 ug/ml by agar disk diffusion method; format: functional; conditions: read-out: DIZ
Escherichia coli [49] = assay: Antibacterial activity against Escherichia coli MTCC 443 assessed as diameter of zone of inhibition at MIC incubated overnight by disk diffusion method; format: functional
Escherichia coli [50] = assay: Bacteriostatic activity against Escherichia coli MTCC 443 assessed as reduction in log phase of bacterial growth at 0.5 to 1 times MIC measured upto 24 hrs by absorbance based assay; format: functional, organism-based
Staphylococcus aureus [51] = assay: Ratio of MBC for antibacterial activity against Staphylococcus aureus MTCC 902 to MIC for bactericidal activity against Staphylococcus aureus MTCC 902; format: functional

`O=C1Nc2ccc(Cl)cc2/C1=N/CCNc1ccnc2cc(Cl)ccc12` was tested, and the “diameter of the inhibition zone (DIZ)” value (Salmonella typhi [1]) was 11 mm, the “diameter of the inhibition zone (DIZ)” value (Staphylococcus aureus [2]) was 16 mm and the Activity (Staphylococcus aureus [3]) was “inactive”. For the same molecule, the “inhibition (INH)” value (Enterococcus faecalis [4]) was greater than 80%, the “inhibition (INH)” value (Bacillus subtilis [5]) was greater than 80% and the MIC (Escherichia coli [6]) was 256 µg/mL (≈ 664 µM). For the same molecule, the “diameter of the inhibition zone (DIZ)” value (Salmonella typhi [7]) was 10 mm, the MBC (Staphylococcus aureus [8]) was 256 µg/mL (≈ 664 µM) and the “fractional inhibitory concentration index (FICI)” value (Escherichia coli [9]) was 0.249. For the same molecule, the “fractional inhibitory concentration index (FICI)” value (Pseudomonas aeruginosa [10]) was 1.062, the Ratio (Pseudomonas aeruginosa [11]) was 1 and the MBC (Pseudomonas aeruginosa [12]) was 128 µg/mL (≈ 332 µM). The MBC (Enterococcus faecalis [13]) was 512 µg/mL (≈ 1330 µM), the MIC (Enterococcus faecalis [14]) was 512 µg/mL (≈ 1330 µM) and the “diameter of the inhibition zone (DIZ)” value (Enterococcus faecalis [15]) was 19 mm. For the same molecule, the MIC (Salmonella typhi [16]) was greater than 512 µg/mL, the MIC (Staphylococcus aureus [17]) was 64 µg/mL and the zone of inhibition at 500 µg/mL (Enterococcus faecalis [18]) was 8 mm. For the same molecule, the “diameter of the inhibition zone (DIZ)” value (Enterococcus faecalis [19]) was 12 mm, the MIC (Pseudomonas aeruginosa [20]) was 8 µg/mL and the “inhibition (INH)” value (Staphylococcus aureus [21]) was greater than 80%. The “inhibition (INH)” value (Pseudomonas aeruginosa [22]) was greater than 80%, the zone of inhibition at 500 µg/mL (Pseudomonas aeruginosa [23]) was 12 mm and the “diameter of the inhibition zone (DIZ)” value (Pseudomonas aeruginosa [24]) was 18 mm. The “diameter of the inhibition zone (DIZ)” value (Staphylococcus aureus [25]) was 15 mm, the “diameter of the inhibition zone (DIZ)” value (Bacillus subtilis [26]) was 6 mm and the MBC (Escherichia coli [27]) was greater than 512 µg/mL. For the same molecule, the Ratio (Enterococcus faecalis [28]) was 1, the “diameter of the inhibition zone (DIZ)” value (Enterococcus faecalis [29]) was 17 mm and the “diameter of the inhibition zone (DIZ)” value (Escherichia coli [30]) was 11 mm. The “fractional inhibitory concentration index (FICI)” value (Staphylococcus aureus [31]) was 1.25, the zone of inhibition at 500 µg/mL (Escherichia coli [32]) was 11 mm and the “diameter of the inhibition zone (DIZ)” value (Pseudomonas aeruginosa [33]) was 13 mm. The “diameter of the inhibition zone (DIZ)” value (Salmonella typhi [34]) was 13 mm, the Activity (Staphylococcus aureus [35]) was “inactive” and the Activity (Escherichia coli [36]) was “Active”. The “fractional inhibitory concentration index (FICI)” value (Enterococcus faecalis [37]) was 1.125, the “diameter of the inhibition zone (DIZ)” value (Escherichia coli [38]) was 11 mm and the MIC (Bacillus subtilis [39]) was greater than 512 µg/mL. For the same molecule, the MIC (Pseudomonas aeruginosa [40]) was 128 µg/mL (≈ 332 µM), the MIC (Staphylococcus aureus [41]) was 256 µg/mL (≈ 664 µM) and the “diameter of the inhibition zone (DIZ)” value (Bacillus subtilis [42]) was 8 mm. For the same molecule, the MIC (Escherichia coli [43]) was 32 µg/mL, the Activity (Staphylococcus aureus [44]) was “Active” and the MIC (Enterococcus faecalis [45]) was 64 µg/mL. For the same molecule, the “diameter of the inhibition zone (DIZ)” value (Staphylococcus aureus [46]) was 13 mm, the “diameter of the inhibition zone (DIZ)” value (Pseudomonas aeruginosa [47]) was 20 mm and the zone of inhibition at 500 µg/mL (Staphylococcus aureus [48]) was 10 mm. For the same molecule, the “diameter of the inhibition zone (DIZ)” value (Escherichia coli [49]) was 12 mm, the Activity (Escherichia coli [50]) was “Active” and the Ratio (Staphylococcus aureus [51]) was 1.
